≈ marks a conversion by molar mass, not a printed value. Where two headings read alike, the source gives them in different places.
Columns and labels:
[1] = tested on: E. coli drug resistant clinical isolates; assay: Antibacterial activity (MIC) against drug resistant clinical isolates, alone and with PMBN; format: cell-based; details: Escherichia coli, NCTC13476, E. coli (NCTC13476); read-out: MIC Compound alone
[2] = tested on: A. baumannii (ATCC 19606); assay: microbe, parasite or virus in culture; details: Acinetobacter baumannii, ATCC19606, read-out: MIC Compound alone
[3] = tested on: P. aeruginosa (ATCC 27853); assay: microbe, parasite or virus in culture; details: Pseudomonas aeruginosa, ATCC27853, read-out: MIC Compound alone
[4] = tested on: E. cloaceae drug resistant clinical isolates; assay: Antibacterial activity (MIC) against drug resistant clinical isolates, alone and with PMBN; format: cell-based; details: for MIC: read-out: MIC Compound alone
E. coli (ATCC 25922) [5] = assay: microbe, parasite or virus in culture; details: Escherichia coli
E. faecalis (ATCC 29212) = assay: Antibacterial activity (MIC), Gram-positive type strain; format: cell-based, Enteroccocus faecalis; details: Enterococcus faecalis, ATCC29212; Table 13
[6] = tested on: A. baumannii drug resistant clinical isolates; assay: Antibacterial activity (MIC) against drug resistant clinical isolates, alone and with PMBN; format: cell-based; details: for MIC: Acinetobacter baumannii, read-out: MIC Compound alone
[7] = tested on: P. aeruginosa (ATCC 27853); details: Table 5
[8] = tested on: H. influenzae (ATCC 49247); assay: Antibacterial activity (MIC), Gram-negative type strain; format: cell-based, Haemophilus influenzae; details: Haemophilus influenzae, ATCC49247; Table 13
E. coli (ATCC 25922) [9] = tested on: E. coli (ATCC 25922)

`CCNC(=O)Nc1nc2cc(-c3cnc(NS(=O)(=O)C(C)(C)C)nc3)cc(-c3ccc(C)cn3)c2s1` [Compound A-13, 1-[5-[2-(tert-Butylsulfonylamino)pyrimidin-5-yl]-7-(5-methyl-2-pyridyl)-1,3-benzothiazol-2-yl]-3-ethyl-urea] showed an MIC [1] of 8 µg/mL (≈ 15.2 µM), an MIC [2] of 1 µg/mL (≈ 1.9 µM) and an MIC [3] of 4 µg/mL (≈ 7.61 µM). The “MIC of Compound (μg/ml) in the presence of PMBN (128 μg/ml)” value (“MIC of Compound (μg/ml) … (128 μg/ml)” below) ([4]; E. cloaceae (MMX 6087)) was 0.25 µg/mL, the MIC ([4]; E. cloaceae (MMX 6087)) was greater than 64 µg/mL and the “MIC of Compound (μg/ml) … (128 μg/ml)” value ([4]; E. cloaceae (MMX 6093)) was 0.12 µg/mL. For the same compound, the MIC ([4]; E. cloaceae (MMX 6093)) was 8 µg/mL (≈ 15.2 µM), the “MIC of Compound (μg/ml) … (128 μg/ml)” value ([4]; E. cloaceae (MMX 6095)) was 1 µg/mL and the MIC ([4]; E. cloaceae (MMX 6095)) was greater than 64 µg/mL. For the same compound, the “MIC of Compound (μg/ml) … (128 μg/ml)” value ([4]; E. cloaceae (MMX 6304)) was 0.25 µg/mL, the MIC ([4]; E. cloaceae (MMX 6304)) was greater than 16 µg/mL and the MIC (E. coli (ATCC 25922) [5]; ATCC25922, read-out: MIC Compound alone, Table 1) was 1 µg/mL (≈ 1.9 µM). The MIC (E. coli (ATCC 25922) [5]; ATCC25922, read-out: MIC Compound alone, Table 2) was 1 µg/mL (≈ 1.9 µM), the MIC (E. coli (ATCC 25922) [5]; ATCC25922, read-out: MIC Compound alone, Table 3) was 1 µg/mL (≈ 1.9 µM) and the MIC (E. faecalis (ATCC 29212)) was no more than 0.008 µg/mL. For the same compound, the “MIC of Compound (μg/ml) … (128 μg/ml)” value ([6]; A. baumannii (MMX 2585)) was 0.12 µg/mL, the “MIC of Compound (μg/ml) … (128 μg/ml)” value ([6]; A. baumannii (MMX 2598)) was 0.06 µg/mL and the “MIC of Compound (μg/ml) … (128 μg/ml)” value ([6]; A. baumannii (MMX 2600)) was 0.06 µg/mL. The “MIC of Compound (μg/ml) … (128 μg/ml)” value ([6]; A. baumannii (MMX 4405)) was 0.12 µg/mL, the “MIC of Compound (μg/ml) … (128 μg/ml)” value ([6]; A. baumannii (MMX 4454)) was 0.12 µg/mL and the “MIC of Compound (μg/ml) … (128 μg/ml)” value ([6]; A. baumannii (MMX 6331)) was 0.06 µg/mL. For the same compound, the “MIC of Compound (μg/ml) … (128 μg/ml)” value ([6]; A. baumannii (NCTC13301)) was 0.12 µg/mL, the “MIC of Compound (μg/ml) … (128 μg/ml)” value ([6]; A. baumannii (NCTC13302)) was 0.03 µg/mL and the “MIC of Compound (μg/ml) … (128 μg/ml)” value ([6]; A. baumannii (NCTC13303)) was 0.06 µg/mL. The “MIC of Compound (μg/ml) … (128 μg/ml)” value ([6]; A. baumannii (NCTC13304)) was 0.03 µg/mL, the “MIC of Compound (μg/ml) … (128 μg/ml)” value ([6]; A. baumannii (NCTC13305)) was 0.12 µg/mL and the “MIC of Compound (μg/ml) … (128 μg/ml)” value ([6]; A. baumannii (NCTC 13420)) was 0.03 µg/mL. The “MIC of Compound (μg/ml) … (128 μg/ml)” value ([6]; A. baumannii (NCTC13421)) was 0.03 µg/mL, the “MIC of Compound (μg/ml) … (128 μg/ml)” value ([6]; A. baumannii (NCTC13422)) was 0.03 µg/mL and the “MIC of Compound (μg/ml) … (128 μg/ml)” value ([6]; A. baumannii (NCTC13424)) was 0.03 µg/mL. For the same compound, the MIC ([6]; A. baumannii (MMX 2585)) was 4 µg/mL (≈ 7.61 µM), the MIC ([6]; A. baumannii (MMX 2598)) was 2 µg/mL (≈ 3.8 µM) and the MIC ([6]; A. baumannii (MMX 2600)) was 2 µg/mL (≈ 3.8 µM). It also gave an MIC ([6]; A. baumannii (MMX 4405)) of 4 µg/mL (≈ 7.61 µM), an MIC ([6]; A. baumannii (MMX 4454)) of 1 µg/mL (≈ 1.9 µM) and an MIC ([6]; A. baumannii (MMX 6331)) of 4 µg/mL (≈ 7.61 µM). The MIC ([6]; NCTC13301, A. baumannii (NCTC13301)) was 4 µg/mL (≈ 7.61 µM), the MIC ([6]; NCTC13302, A. baumannii (NCTC13302)) was 1 µg/mL (≈ 1.9 µM) and the MIC ([6]; NCTC13303, A. baumannii (NCTC13303)) was 2 µg/mL (≈ 3.8 µM). It also gave an MIC ([6]; NCTC13304, A. baumannii (NCTC13304)) of 1 µg/mL (≈ 1.9 µM), an MIC ([6]; NCTC13305, A. baumannii (NCTC13305)) of 2 µg/mL (≈ 3.8 µM) and an MIC ([6]; NCTC13420, A. baumannii (NCTC 13420)) of 1 µg/mL (≈ 1.9 µM). For the same compound, the MIC ([6]; NCTC13421, A. baumannii (NCTC13421)) was 2 µg/mL (≈ 3.8 µM), the MIC ([6]; NCTC13422, A. baumannii (NCTC13422)) was 4 µg/mL (≈ 7.61 µM) and the MIC ([6]; NCTC13424, A. baumannii (NCTC13424)) was 1 µg/mL (≈ 1.9 µM). For the same compound, the “MIC of Compound (μg/ml) … (128 μg/ml)” value [7] was “<=0.008 μg/ml”, the MIC [8] was 0.015 µg/mL (≈ 0.0285 µM) and the “MIC of Compound (μg/ml) … (128 μg/ml)” value (E. coli (ATCC 25922) [9]; Table 1, (b) No effect) was 0.008 µg/mL. The “MIC of Compound (μg/ml) in the presence of Colistin (1 μg/ml)” value (E. coli (ATCC 25922) [9]; Table 2, colistin sub-inhibitory) was 0.25 µg/mL and the “MIC of Compound (μg/ml) in the presence of PMB (0.5 μg/ml)” value (E. coli (ATCC 25922) [9]; Table 3, PMB sub-inhibitory) was 0.12 µg/mL.

From patent US20170007615A1, “Antibacterial Compounds” (priority 2014, published 2017)
